Source: patent US20050186237A1, “Bird repellent” (priority 2002, published 2005)
Marks after values point to notes of the source that are not given here.

Experiments:
[1] = test system: wild possums; assay: Palatability of treated baits at possum-specific bait stations; assay type: in vivo, Trichosurus vulpecula
Description: (§1) To determine the palatability of baits to wild possums and wild rats, possum-specific bait stations and rat-specific bait stations were established in bush-pasture margin and forest habitats (see FIG. 1 and FIG. 2).
The possum-specific bait station (FIG. 1) is mounted on an elevated wire stake 4 with bait 2 attached in a perforated bag 1 at top of wire 4. A plastic disc 3 is used to stop rodents (not shown) climbing wire 4 has plasticine (not shown) on it to record animal activity.
(§2) The bait stations (FIGS. 1 and 2) enable determination of the response of possums or rats to bait 2. Plasticine 5 is used to record the presence (e.g. footprints, claw marks, bite marks) and species of animal present at the bait station.
(§3) In this example the repellence of neem (a known repellent), lime (a known repellent), anthraquinone and d-pulegone (compounds of the present invention) in cereal, carrot and paste baits are tested on wild possums and rats.
(§4) The following bait treatments are compared: • standard (solution of dye+water+0.1% cinnamon oil) • cinnamamide (solution of dye+water+0.5% cinnamamide) • neem (solution of dye+water+2% neem oil) • lime (solution of dye+water+2% agricultural lime) • anthraquinone (solution of dye+water+0.75% anthraquinone formulation). • d-pulegone (solution of dye+water+1% d-pulegone) • salt (solution of dye+water+salt (10% of total bait weight))
(§5) Treatments are applied to the cereal and carrot bait surface at a rate of 10% of total bait weight. The treatments are applied to the paste bait by mixing the solution through the bait, again at a rate of 10% of total bait weight.
(§6) The treatments are placed on the bait stations as described above and possum and rat activity measured.
(§7) The following bait treatments were compared (only carrot baits are compared): • standard (solution of dye+water+0.1% cinnamon oil) • anthraquinone 1 (solution of dye+water+1% anthraquinone formulation) • anthraquinone 2 (solution of dye+water+2% anthraquinone formulation) • d-pulegone 1 (solution of dye+water+1% d-pulegone) • d-pulegone 2 (solution of dye+water+2% d-pulegone) • combination 1 (solution of dye+water+1% anthraquinone formulation+1% d-pulegone) • combination 2 (solution of dye+water+2% anthraquinone formulation+2% d-pulegone) • salt (solution of dye+water+salt (10% of total bait weight))
(§8) All quantities given in percent by weight and all bait treatment, bait station set-up and subsequent measurement are as described in Example 1.

[2] = test system: wild rats; assay: Palatability of treated baits at rat-specific bait stations; assay type: in vivo, Rattus spp.
Procedure: as §1
The rat-specific bait station (FIG. 2) is an approximately 60 mm diameter tube 6 with bait 2 placed in the centre and tube 6 is pinned to ground with holding stake 4. Plasticine 5 is added at either end of the tube 6 to record animal activity.
as §2, §3, §4, §5, §6, §7, §8

[3] = test system: brushtail possums; settings: Day et al, 2000; cited from earlier work
[4] = test system: wild sparrows; assay: Sparrow feed table dose response and combination test on treated wheat (Example 7); assay type: in vivo; settings: FIGS. 6-8; result in words
Description: Wild sparrow tests were used to determine the effect of the individual repellency compared with the combination repellency.
On sparrow feed tables, sparrows were offered a choice between control wheat and three doses of repellent treated wheat.

[5] = test system: several bird species; settings: 1% w/w concentration; including European starlings and northern bobwhites; cited from earlier work
[6] = test system: rats; settings: Day et al, 2000; cited from earlier work
[7] = test system: house sparrows; assay: Sparrow treated wheat choice test, 4-day periods (Example 8, Experiment 1); assay type: in vivo, Passer domesticus; settings: mean daily percentage of wheat eaten over 4-day test periods; choice with plain wheat
Procedure: The feeding behavior of free-ranging house sparrows (Passer domesticus) presented wheat treated with anthraquinone paired with either a novel visual cue (blue dye), cinnamon oil (containing primarily olfactory cues), or d-pulegone (containing olfactory and taste cues), was recorded, to determine the suitability of repellent combinations for preventing non-target birds from consuming pesticides or other harmful substances.
Eight independent populations of house sparrows, were trained to eat plain hulled wheat from four identical food trays on feed tables.
In Experiment 1, sparrows were presented, for 4-day periods, with a choice between plain wheat, anthraquinone treated wheat, and two of the remaining repellent combinations (anthraquinone and cinnamon oil, anthraquinone and blue dye, anthraquinone and d-pulegone (at 0.5% wt or 2.0% wt concentrations)) until all sparrow populations had been exposed to each repellent.
The consumption of plain wheat and anthraquinone treated wheat was compared to the consumption of the repellent combinations every 24 hr.

[8] = Example 1, by bait treatment (cereal, carrot, paste baits), first exposure
[9] = Example 1, by bait treatment, first exposure
[10] = Example 1, by bait treatment, subsequent exposures
[11] = Example 2, carrot baits, first exposure
[12] = Example 2, carrot baits, subsequent exposures

| Molecule | Proportion of bait stations left untouched [1, 8] | Proportion of bait stations with bait eaten when encountered [1, 9] | Proportion of bait stations left untouched [1, 10] | Proportion of bait stations with bait eaten when encountered [1, 10] | Proportion of bait stations eaten when encountered [2, 9] | Proportion of bait stations left untouched [2, 9] | Proportion of bait stations eaten when encountered [2, 10] | Proportion of bait stations left untouched [2, 10] | Acceptance of treated baits by possums [3] | Amount of wheat eaten by sparrows relative to control wheat or single repellents [4] | Acceptance of treated baits by rats / wild rodents [6] | other results |
| --- | --- | --- | --- | --- | --- | --- | --- | --- | --- | --- | --- | --- |
| NC(=O)C=Cc1ccccc1 [Cinnamamide, cinnamamide] | 0.55 | 0.71 | 0.29 | 0.95 | 0.67 | 0.77 | 0.70 | 0.66 | – | – | – | – |
| Salt | 0.37 | 0.30 | 0.29 | 0.38 | 0.00 | 0.86 | 0.16 | 0.72 | – | – | – | Proportion of bait stations eaten when encountered [1, 11]: 1.00; Proportion of bait stations left untouched [1, 11]: 0.82; Proportion of bait stations eaten when encountered [1, 12]: 0.43*; Proportion of bait stations left untouched [1, 12]: 0.30*; Proportion of bait stations eaten when encountered [2, 11]: 0.22; Proportion of bait stations left untouched [2, 11]: 0.18; Proportion of bait stations eaten when encountered [2, 12]: 0.33*; Proportion of bait stations left untouched [2, 12]: 0.50 |
| CC(C)=C1CC[C@@H](C)CC1=O [d-pulegone, d-Pulegone] | 0.52 | 0.87 | 0.30 | 0.98 | 0.70 | 0.63 | 0.75 | 0.55 | readily take carrot baits | reduced the quantity of wheat eaten by sparrows on days 1, 3 and 4 | readily take carrot baits | Repellence of birds [5]: repel several bird species |
| O=C1c2ccccc2C(=O)c2ccccc21 [Anthraquinone] | 0.67 | 0.80 | 0.35 | 1.00 | 1.00 | 0.64 | 0.65 | 0.57 | readily eaten by possums | reduced the amount of wheat eaten by sparrows on days 3 and 4 | readily take anthraquinone treated baits from bait stations | Wheat consumption, percentage of that offered [7]: 54% |
